Test results: ChEMBL document CHEMBL3044976, “Screening and evaluation of rat kidney aldose reductase inhibitory activity of some pyridazine derivatives” (Med Chem Res, 2006)

Each compound was assayed against Aldo-keto reductase family 1 member B1 (Rattus norvegicus) (UniProt P07943) (assay: Inhibition of Rattus norvegicus albino (rat) kidney aldose reductase using DL-glyceraldehyde as substrate assessed as decrease in NADPH concentRattus norvegicus (rat) ion at 10^-4 M after 5 min by spectrophotometrically).
Compound O=C(CCc1cc(-c2ccc(Cl)cc2)n(-c2ccc(Cl)nn2)n1)NCCc1ccccc1 has an inhibition of 0%.
CCOC(=O)Cn1nc(-n2nc(-c3ccccc3)cc2C)ccc1=O was tested, and the inhibition was 0%.
Work on Cc1cc(C)n(-c2ccc(=O)n(CC(=O)NCCc3ccccc3)n2)n1 yielded an inhibition of 0%.
With CCOC(=O)Cn1nc(-n2nc(C)cc2C)ccc1=O the inhibition was 0%.
For Cc1nn(-c2ccc(=O)n(CC(=O)O)n2)c(C)c1Cl, the inhibition was 0.98%.
Compound Cc1cc(-c2ccccc2)nn1-c1ccc(=O)n(CC(=O)O)n1 has an inhibition of 0.76%.
For Cc1cc(C)n(-c2ccc(=O)n(CC(=O)Nc3cccnc3)n2)n1, the inhibition was 0%.
Cc1cc(-c2ccccc2)nn1-c1ccc(=O)n(CC(=O)Nc2ccc(Cl)cc2)n1 gave an inhibition of 0%.
With O=C(CCc1cc(-c2ccc(Cl)cc2)n(-c2ccc(Cl)nn2)n1)Nc1ccc(Cl)cc1 the inhibition was 0%.
O=C(CCc1cc(-c2ccc(Cl)cc2)n(-c2ccc(Cl)nn2)n1)N1CCCCC1 was tested, and the inhibition was 0%.
Cc1nn(-c2ccc(=O)n(CC(=O)Nc3ccc(F)cc3)n2)c(C)c1Cl gave an inhibition of 0%.
Work on Cc1cc(-c2ccccc2)nn1-c1ccc(=O)n(CC(=O)NCCc2ccccc2)n1 yielded an inhibition of 0%.
Cc1cc(-c2ccccc2)nn1-c1ccc(=O)n(CC(=O)N2CCN(c3ccc(F)cc3)CC2)n1 gave an inhibition of 0%.
Cc1cc(C)n(-c2ccc(=O)n(CC(=O)N3CCN(c4ccc(F)cc4)CC3)n2)n1 showed an inhibition of 1.85%.
With Cc1cc(-c2ccccc2)nn1-c1ccc(=O)n(CC(=O)N2CCN(c3ccccc3F)CC2)n1 the inhibition was 1.85%.
With O=C(O)CCc1cc(-c2ccc(Cl)cc2)n(-c2ccc(Cl)nn2)n1 the inhibition was 0.76%.
Cc1nn(-c2ccc(=O)n(CC(=O)N3CCCCC3)n2)c(C)c1Cl was tested, and the inhibition was 0%.
Compound Cc1cc(C)n(-c2ccc(=O)n(CC(=O)O)n2)n1 has an inhibition of 7.73%.
CCOC(=O)Cn1nc(-n2nc(C)c(Cl)c2C)ccc1=O showed an inhibition of 0%.
Cc1cc(C)n(-c2ccc(=O)n(CC(=O)Nc3ccc(Cl)cc3)n2)n1 gave an inhibition of 0%.
For Cc1nn(-c2ccc(=O)n(CC(=O)Nc3ccc(Cl)cc3)n2)c(C)c1Cl, the inhibition was 0%.
Cc1cc(C)n(-c2ccc(=O)n(CC(=O)N3CCN(c4ccccc4F)CC3)n2)n1 gave an inhibition of 0%.
In the case of Cc1cc(-c2ccccc2)nn1-c1ccc(=O)n(CC(=O)Nc2cccnc2)n1, the inhibition is reported as 3.37%.
For Cc1nn(-c2ccc(=O)n(CC(=O)NCCc3ccccc3)n2)c(C)c1Cl, the inhibition was 0%.
